Reference: ChEMBL document CHEMBL3525982, “Metabolism and pharmacokinetics of indacaterol in humans” (Drug Metab Dispos, 2012)

Legend:
[1] = Drug recovery in healthy human feces treated with [14C]indacaterol at 800 ug, po as single dose after 168 hrs postdose by liquid scintillation counting; format: ADME, organism-based; settings: in vivo
Serum [2] = assay: AUC (0 to 24 hrs) in healthy human serum treated with [14C]indacaterol at 800 ug, po as single dose by HPLC analysis relative to total radioactivity; format: ADME, organism-based; settings: in vivo
Serum [3] = assay: Drug level in healthy human serum treated with [14C]indacaterol at 800 ug, po as single dose at 2 hrs by HPLC analysis relative to total radioactivity; format: ADME, organism-based; settings: in vivo
Serum [4] = assay: Drug level in healthy human serum treated with [14C]indacaterol at 800 ug, po as single dose at 2 hrs by HPLC analysis; format: ADME, organism-based; settings: in vivo
[5] = Drug recovery in healthy human urine treated with [14C]indacaterol at 800 ug, po as single dose after 168 hrs postdose by liquid scintillation counting; format: ADME, organism-based; settings: in vivo
Serum [6] = assay: AUC (0 to 24 hrs) in healthy human serum treated with [14C]indacaterol at 800 ug, po as single dose by HPLC analysis; format: ADME, organism-based; parameters: time < 24 hr, dose 800 ug, route oral; settings: in vivo
Serum [7] = assay: Drug metabolism in healthy human serum treated with [14C]indacaterol at 800 ug, po as single dose by HPLC analysis; format: ADME, organism-based; settings: in vivo
[8] = Drug recovery in healthy human feces at 800 ug, po as single dose measured after 168 hrs postdose by liquid scintillation counting; format: ADME, organism-based; settings: in vivo
Serum [9] = assay: Drug metabolism in healthy human serum assessed as (2S,3S,4S,5R,6R)-6-((5,6-diethyl-2,3-dihydro-1H-inden-2-yl)((S)-2-hydroxy-2-(8-hydroxy-2-oxo-1,2-dihydroquinolin-5-yl)ethyl)amino)-3,4,5-trihydroxytetrahydro-2H-pyran-2-carboxylic acid formation at 800 ug, po as single dose by HPLC analysis; format: ADME, organism-based; settings: in vivo
Homo sapiens [10] = assay: AUC (0 to last) in healthy human assessed as total radioactivity at 800 ug, po as single dose by LC-MS/MS analysis; format: ADME, organism-based, Plasma; settings: in vivo
Serum [11] = assay: Drug level in healthy human serum at 800 ug, po as single dose at 2 hrs by HPLC analysis relative to total radioactivity; format: ADME, organism-based; settings: in vivo
Serum [12] = assay: AUC (0 to 24 hrs) in healthy human serum at 800 ug, po as single dose by HPLC analysis; format: ADME, organism-based; parameters: time < 24 hr, dose 800 ug, route oral; settings: in vivo
Homo sapiens [13] = assay: Tmax in healthy human assessed as total radioactivity at 800 ug, po as single dose by LC-MS/MS analysis; format: ADME, organism-based; settings: in vivo
Homo sapiens [14] = assay: Cmax in healthy human assessed as total radioactivity at 800 ug, po as single dose by LC-MS/MS analysis; format: ADME, organism-based; parameters: dose 800 ug, route oral; settings: in vivo
Serum [15] = assay: Drug level in healthy human serum at 800 ug, po as single dose at 2 hrs by HPLC analysis; format: ADME, organism-based; settings: in vivo
Serum [16] = assay: AUC (0 to 24 hrs) in healthy human serum at 800 ug, po as single dose by HPLC analysis relative to total radioactivity; format: ADME, organism-based; settings: in vivo
Serum [17] = assay: Drug metabolism in healthy human serum assessed as 5,6-diethyl-2,3-dihydro-1H-inden-2-amine formation at 800 ug, po as single dose by HPLC analysis; format: ADME, organism-based; settings: in vivo
Serum [18] = assay: Drug metabolism in healthy human serum assessed as 2-(5,6-diethyl-2,3-dihydro-1H-inden-2-ylamino)acetic acid formation at 800 ug, po as single dose by HPLC analysis; format: ADME, organism-based; settings: in vivo
[19] = Drug recovery in healthy human urine assessed as total radioactivity at 800 ug, po as single dose after 168 hrs postdose by liquid scintillation counting; format: ADME, organism-based; settings: in vivo
[20] = Drug recovery in healthy human feces assessed as total radioactivity at 800 ug, po as single dose after 168 hrs postdose by liquid scintillation counting; format: ADME, organism-based; settings: in vivo
[21] = Tmax in healthy human at 800 ug, po as single dose by LC-MS/MS analysis; format: ADME, organism-based; settings: in vivo
[22] = Cmax in healthy human at 800 ug, po as single dose by LC-MS/MS analysis; format: ADME, organism-based; parameters: dose 800 ug, route oral; settings: in vivo
[23] = AUC (0 to 12 hrs) in healthy human at 800 ug, po as single dose by LC-MS/MS analysis; format: ADME, organism-based; parameters: dose 800 ug, time < 12 hr, route oral; settings: plasma
[24] = Drug recovery in healthy human urine at 800 ug, po as single dose after 168 hrs postdose by liquid scintillation counting; format: ADME, organism-based; settings: in vivo
[25] = Drug recovery in healthy human feces at 800 ug, po as single dose after 168 hrs postdose by liquid scintillation counting; format: ADME, organism-based; settings: in vivo

Row | Structure (SMILES) | Drug recovery [1] [%] | Drug uptake (Serum [2]) [%] | Drug uptake (Serum [3]) [%] | Drug uptake (Serum [4]) [ngequiv/ml] | Drug recovery [5] [%] | AUC (Serum [6]) [ng.Eq.hr/ml] | Drug metabolism (Serum [7]) | Drug recovery [8] | other results
1 | CCc1cc2c(cc1CC)CC(NC[C@H](O)c1ccc(O[C@@H]3O[C@H](C(=O)O)[C@@H](O)[C@H](O)[C@H]3O)c3[nH]c(=O)ccc13)C2 | 0 | 4.22 | 7.42 | 0.1 | 0.53 | 0.6 | – | – | –
2 | CCc1cc2c(cc1CC)CC(N(C[C@H](O)c1ccc(O)c3[nH]c(=O)ccc13)[C@@H]1O[C@H](C(=O)O)[C@@H](O)[C@H](O)[C@H]1O)C2 | – | – | – | – | – | – | metabolite_detected | – | –
3 | CCc1cc2c(cc1CC)CC(NCC(=O)O)C2 | 0 | – | – | – | 0.97 | – | metabolite_detected | – | –
4 | CCc1cc2c(cc1CC)CC(N)C2 | 1.7 | – | – | – | 0 | – | metabolite_detected | <= 6% | –
5 | CCc1cc2c(cc1[14CH2]C)CC(NC[C@H](O)c1ccc(O)c3[nH]c(=O)ccc13)C2 (stereo partly drawn) | – | – | – | – | – | – | – | – | Drug metabolism (Serum [9]): metabolite_detected; AUClast (Homo sapiens [10]): 27.2 ng.Eq.hr/ml; Drug uptake (Serum [11]): 31.4%; AUC (Serum [12]): 4.58 ng.Eq.hr/ml; Tmax (Homo sapiens [13]): 2.5 h; Cmax (Homo sapiens [14]): 1.4 ng.Eq/ml; Drug uptake (Serum [15]): 0.42 ngequiv/ml; Drug uptake (Serum [16]): 32.5%; Drug metabolism (Serum [17]): metabolite_detected; Drug metabolism (Serum [18]): metabolite_detected; Drug recovery [19]: 9.7%; Drug recovery [20]: 85.3%
6 | CCc1cc2c(cc1C(C)O)CC(NC[C@H](O)c1ccc(O[C@@H]3O[C@H](C(=O)O)[C@@H](O)[C@H](O)[C@H]3O)c3[nH]c(=O)ccc13)C2 (stereo partly drawn) | 0 | 5.78 | 9.31 | 0.12 | 0.83 | 0.82 | – | – | –
7 | CCc1cc2c(cc1C(C)O)CC(NC[C@H](O)c1ccc(O)c3[nH]c(=O)ccc13)C2 (stereo in doubt; P26.9) | 17.44 | 12.4 | 13.2 | 0.18 | 1.24 | 1.8 | – | 17% | –
8 | CCc1cc2c(cc1C(C)O)CC(NC[C@H](O)c1ccc(O)c3[nH]c(=O)ccc13)C2 (stereo in doubt; P30.3) | 6.33 | – | – | – | 0.31 | – | – | <= 6% | –
9 | CCc1cc2c(cc1CC)CC(NC[C@H](O)c1ccc(O)c3[nH]c(=O)ccc13)C2.O=C(O)/C=C\C(=O)O [INDACATEROL MALEATE] | – | – | – | – | – | – | – | 54% | Tmax [21]: 1.75 h; Cmax [22]: 0.47 ng/mL; AUC(0-t) at 12 h [23]: 1.81 ng·h/mL; Drug recovery [24]: 0.34%; Drug recovery [25]: 54.42%
